How the values were obtained:
Type in all cases: in vivo
Rhipicephalus microplus = assay: Rhipicephalus (Boophilus) microplus dip test (BOOPMI Dip); settings: 168 h, application rate 100 ppm, engorged adult female ticks, after 7 days, read-out: activity (efficacy: 100% means all eggs are infertile)
Description: Rhipicephalus (Boophilus) Microplus—Dip Test (BOOPMI Dip)
Test Animal: cattle ticks (Rhipicephalus microplus) strain parkhurst, SP-resistant Solvent: dimethyl sulfoxide
To produce a suitable preparation of active compound, 10 mg of active compound are dissolved in 0.5 mL solvent, and the concentrate is diluted with water to the desired concentration.
This compound solution is pipetted into tubes. 8-10 engorged, adult, female cattle ticks (Rhipicephalus microplus) are placed in perforated tubes. These tubes are immersed in the aqueous compound solution until the ticks are completely moistened. After the liquid has drained off, the ticks are transferred to a filter paper in a plastic tray and stored in a climate chamber.
After 7 days egg deposition of fertile eggs is monitored. Eggs where fertility is not visible are stored in a climate chamber till hatching after about 42 days. An efficacy of 100% means all eggs are infertile; 0% means all eggs are fertile.

Rhipicephalus sanguineus = Rhipicephalus sanguineus in-vitro contact test, adult brown dog ticks (RHIPSA Cont); settings: 48 h, after 48 hours, read-out: activity (efficacy: 100% means all ticks are dead or moribund); for pest or weed control at 1 µg/cm2, 100 g/ha: application rate 1 μg/cm^2 (=100 g/ha); for pest or weed control at 5 µg/cm2, 500 g/ha: application rate 5 μg/cm^2 (=500 g/ha)
Outline: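 Compound in acetone (9 mg/mL stock, diluted to test concentration) is coated onto inner walls of glass tubes by rotation for 2 h at 30 rpm. Efficacy is read after 48 h: ticks are tapped down and held on a 45-50° C plate for at most 5 min, and immotile or uncoordinated ones that fail to climb away count as dead or moribund.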

Myzus persicae = Myzus persicae oral test; settings: 120 h, read-out: activity (mortality)
Outline: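 Percent mortality was recorded at day 5, where 0% means no aphids killed. Compound prepared from an acetone concentrate diluted in water and combined with IPL41 medium containing sugar was offered to mixed-stage green peach aphids, which sucked it through a parafilm seal.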

[1] = test system: Aedes aegypti strain MONHEIM; assay: Aedes aegypti test (AEDSAE surface treatment & contact assay); settings: exposure 30 minutes, 24 hours after contact, read-out: efficacy (mortality); for mortality at 4 mg/m2: surface concentration 4 mg/m^2, glazed tile; for mortality at 20 mg/m2: surface concentration 20 mg/m^2, glazed tile
Outline: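 Compound dissolved in acetone (2 mg/ml) with 2000 ppm rapeseed oil methyl ester, pipetted onto glazed tile and dried. Adult mosquitoes exposed on the surface for 30 min; percent mortality scored 24 h after contact.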

[2] = test system: Musca domestica strain WHO—N; assay: Musca domestica test (MUSCDO surface treatment & contact assay); settings: exposure 30 minutes, 24 hours after contact, read-out: efficacy (mortality); for mortality at 20 mg/m2: surface concentration 20 mg/m^2, glazed tile; for mortality at 4 mg/m2: surface concentration 4 mg/m^2, glazed tile
Outline: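 Compound dissolved in acetone (2 mg/ml) with 2000 ppm rapeseed oil methyl ester and pipetted onto glazed tile; after acetone evaporation, adult flies exposed to dried surface for 30 minutes. Mortality (%) scored 24 hours after contact.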

Nezara viridula = Nezara viridula spray test; settings: in Hordeum vulgare, 96 h, barley plants, larvae, after 4 days; for mortality at 100 g/ha: application rate 100 g/ha; for mortality at 500 g/ha: application rate 500 g/ha
Outline: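 Barley plants infested with N. viridula larvae were sprayed with compound in acetone/DMF diluted with water containing 1000 ppm alkylarylpolyglycol ether emulsifier. Mortality (%) was scored after 4 days; 100% means all bugs killed, 0% none.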

[3] = test system: Culex quinquefasciatus strain P00; assay: Culex quinquefasciatus test (CULXFA surface treatment & contact assay); settings: exposure 30 minutes, 24 hours after contact, read-out: efficacy (mortality); for mortality at 4 mg/m2: surface concentration 4 mg/m^2, glazed tile; for mortality at 20 mg/m2: surface concentration 20 mg/m^2, glazed tile
Outline: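 Test compound in acetone (2 mg/ml) with 2000 ppm RME pipetted onto glazed tile; after acetone evaporation, adult strain P00 mosquitoes exposed to dried surface for 30 min. Mortality (%) scored 24 h after contact; 100% = all dead, 0% = none dead.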

[4] = test system: Anopheles funestus strain FUMOZ-R; assay: Anopheles funestus test (ANPHFU surface treatment & contact assay); settings: exposure 30 minutes, 24 hours after contact, read-out: efficacy (mortality); for mortality at 4 mg/m2: surface concentration 4 mg/m^2, glazed tile; for mortality at 20 mg/m2: surface concentration 20 mg/m^2, glazed tile
Outline: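 Adult FUMOZ-R mosquitoes were exposed 30 min to glazed tiles treated with compound in acetone plus 2000 ppm rapeseed oil methyl ester, after solvent evaporation. Percent mortality was scored 24 h after contact.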

Compound | pest or weed control at 100 ppm (Rhipicephalus microplus) [%] | pest or weed control at 1 µg/cm2, 100 g/ha (Rhipicephalus sanguineus) [%] | pest or weed control at 5 µg/cm2, 500 g/ha (Rhipicephalus sanguineus) [%] | mortality at 4 ppm (Myzus persicae) [%] | mortality at 4 mg/m2 [1] [%] | mortality at 20 mg/m2 [1] [%] | mortality at 20 mg/m2 [2] [%] | mortality at 100 g/ha (Nezara viridula) [%] | mortality at 500 g/ha (Nezara viridula) [%] | mortality at 4 mg/m2 [3] [%] | mortality at 20 mg/m2 [3] [%] | mortality at 4 mg/m2 [4] [%] | mortality at 20 mg/m2 [4] [%] | mortality at 4 mg/m2 [2] [%] | mortality at 0.8 ppm (Myzus persicae) [%]
CCc1nc([C@H](C)NC(=O)c2cc(C(F)(F)F)cc(C(F)(F)F)c2)n(-c2ccc(C#N)cn2)n1 [I-1] | 100 | 80 | 100 | 100 | 80 to 100 | 80 to 100 | 80 to 100 |  |  |  |  |  |  |  | 
C[C@H](NC(=O)c1ccnc(C(F)(F)F)n1)c1ncnn1-c1ccc(C#N)cn1 [II-8] |  | 100 | 100 |  | 80 to 100 | 80 to 100 | 80 to 100 | 100 | 100 | 80 to 100 | 80 to 100 | 80 to 100 | 80 to 100 | 80 to 100 | 
C[C@H](NC(=O)c1cccc(Cl)n1)c1ncnn1-c1ccc(C#N)cn1 [II-9] |  |  | 80 |  |  |  | 80 to 100 |  | 100 |  | 80 to 100 | 80 to 100 | 80 to 100 |  | 
C[C@H](NC(=O)c1cc(Cl)cc(C(F)F)c1)c1ncnn1-c1ccc(C#N)cn1 [II-12] |  | 100 | 100 | 100 | 80 to 100 |  | 80 to 100 | 100 | 100 | 80 to 100 | 80 to 100 | 80 to 100 | 80 to 100 | 80 to 100 | 
C[C@H](NC(=O)c1cc(Cl)cc(OC(F)(F)F)c1)c1ncnn1-c1ncc(Cl)s1 [II-16] |  | 100 | 100 |  |  | 80 to 100 | 80 to 100 | 90 | 100 |  | 80 to 100 |  | 80 to 100 |  | 
Cc1nc([C@H](C)NC(=O)c2cc(Cl)cc(Cl)c2)n(-c2cc(C#N)ccn2)n1 [II-17] |  | 80 | 100 |  | 80 to 100 | 80 to 100 | 80 to 100 |  |  |  | 80 to 100 | 80 to 100 | 80 to 100 | 80 to 100 | 
CC(=O)Nc1ccnc(-n2ncnc2[C@H](C)NC(=O)c2cc(Cl)cc(OC(F)(F)F)c2)c1 [II-22] |  |  |  |  | 80 to 100 | 80 to 100 | 80 to 100 |  |  | 80 to 100 | 80 to 100 | 80 to 100 | 80 to 100 | 80 to 100 | 
CCN(C)C(=O)c1ccc(-n2ncnc2[C@H](C)NC(=O)c2cc(Cl)cc(C(F)(F)F)c2)nc1 [II-27] |  | 100 | 100 | 100 | 80 to 100 | 80 to 100 |  |  | 100 |  | 80 to 100 |  | 80 to 100 |  | 
C[C@H](NC(=O)c1cc(Cl)cc(C(F)(F)F)c1)c1ncnn1-c1cc(N)ccn1 [II-28] |  | 100 | 100 | 90 |  | 80 to 100 | 80 to 100 |  | 90 | 80 to 100 | 80 to 100 |  |  |  | 
C[C@H](NC(=O)c1cc(Cl)cc(OC(F)(F)F)c1)c1ncnn1-c1ncc(OC(F)F)cn1 [II-30] |  | 100 | 100 | 100 | 80 to 100 | 80 to 100 | 80 to 100 | 100 | 100 | 80 to 100 |  |  |  | 80 to 100 | 
CCN(C(=O)c1ccc(-n2ncnc2[C@H](C)NC(=O)c2cc(Cl)cc(C(F)(F)F)c2)nc1)C1CC1 [II-31] |  | 100 | 100 | 100 |  | 80 to 100 | 80 to 100 |  | 90 |  | 80 to 100 | 80 to 100 | 80 to 100 |  | 
CC(=O)Nc1ccnc(-n2ncnc2[C@H](C)NC(=O)c2cc(Cl)cc(C(F)(F)F)c2)c1 [II-36] |  |  |  |  | 80 to 100 | 80 to 100 | 80 to 100 |  | 90 | 80 to 100 | 80 to 100 | 80 to 100 | 80 to 100 |  | 
C[C@H](NC(=O)c1cc(C(F)(F)F)cc(C(F)(F)F)c1)c1ncnn1-c1ncc(Cl)s1 [II-40] |  | 80 |  |  | 80 to 100 | 80 to 100 | 80 to 100 | 100 | 100 | 80 to 100 | 80 to 100 |  | 80 to 100 |  | 
C[C@H](NC(=O)c1cc(C(F)(F)F)cc(C(F)(F)F)c1)c1ncnn1-c1ncc(Br)s1 [II-41] |  | 100 | 100 | 100 | 80 to 100 | 80 to 100 | 80 to 100 | 90 |  | 80 to 100 | 80 to 100 |  |  | 80 to 100 | 
Cc1nc([C@H](C)NC(=O)c2cc(Br)cc(Br)c2)n(-c2ccc(C#N)cn2)n1 [II-52] |  | 100 | 100 | 100 | 80 to 100 | 80 to 100 | 80 to 100 |  |  | 80 to 100 |  | 80 to 100 | 80 to 100 | 80 to 100 | 100
Cc1nc([C@H](C)NC(=O)c2cc(Br)cc(C#N)c2)n(-c2ccc(C#N)cn2)n1 [II-54] | 80 | 100 | 100 | 100 | 80 to 100 | 80 to 100 | 80 to 100 |  |  |  |  |  |  | 80 to 100 | 100
Cc1nc([C@H](C)NC(=O)c2cc(Cl)nc(C(F)(F)F)c2)n(-c2ccc(C#N)cn2)n1 [II-62] |  | 100 | 100 | 100 | 80 to 100 | 80 to 100 | 80 to 100 | 100 |  |  | 80 to 100 |  |  | 80 to 100 | 
C[C@H](NC(=O)c1cc(C(F)(F)F)cc(C(F)(F)F)c1)c1ncnn1-c1ccc(C(=O)N(C)CC2CC2)cn1 [II-73] | 100 | 100 | 100 | 100 |  |  |  | 100 | 100 |  |  |  |  |  | 
Cc1nc([C@H](C)NC(=O)c2cc(C(F)(F)F)cc(C(F)(F)F)c2)n(-c2ccc(C(=O)N(C)C3CC3)cn2)n1 [II-96] | 100 | 100 | 100 | 100 | 80 to 100 | 80 to 100 | 80 to 100 |  |  |  |  |  |  | 80 to 100 | 
